Data: PubChem BioAssay (NCI)
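Step 1: Grow cells in 96-well plates. Step 2: Expose to compound for 48 hours at 5 concentrations. Step 3: Interpolate endpoints linearly; if unreached, use highest concentration. GI50 is the concentration that inhibits growth by half. At the TGI there is no net growth.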

Key:
Test in all cases: NCI-60 cell line screen, 48 h
[1] = test system: 786-0 renal
[2] = test system: A498 renal
[3] = test system: A549 NSCLC
[4] = test system: ACHN renal
[5] = test system: BT-549 breast
[6] = test system: CAKI-1 renal
[7] = test system: COLO 205 colon
[8] = test system: DU-145 prostate
[9] = test system: EKVX NSCLC
[10] = test system: HCC-2998 colon
[11] = test system: HCT-116 colon
[12] = test system: HCT-15 colon
[13] = test system: HL-60(TB) leukemia
[14] = test system: HOP-62 NSCLC
[15] = test system: HOP-92 NSCLC
[16] = test system: HS 578T breast
[17] = test system: HT29 colon
[18] = test system: IGROV1 ovarian
[19] = test system: K-562 leukemia
[20] = test system: KM12 colon
[21] = test system: LOX IMVI melanoma
[22] = test system: M14 melanoma
[23] = test system: MALME-3M melanoma
[24] = test system: MCF7 breast
[25] = test system: MDA-MB-231 breast
[26] = test system: MDA-MB-435
[27] = test system: MDA-MB-468 breast
[28] = test system: MOLT-4 leukemia
[29] = test system: NCI-H226 lung
[30] = test system: NCI-H23 lung
[31] = test system: NCI-H460 lung
[32] = test system: NCI-H522 lung
[33] = test system: OVCAR-3 ovarian
[34] = test system: OVCAR-4 ovarian
[35] = test system: OVCAR-5 ovarian
[36] = test system: OVCAR-8 ovarian
[37] = test system: PC-3 prostate
[38] = test system: RXF 393 renal
[39] = test system: SF-268 CNS
[40] = test system: SF-295 CNS
[41] = test system: SF-539 CNS
[42] = test system: SK-MEL-28 melanoma
[43] = test system: SK-MEL-5 melanoma
[44] = test system: SK-OV-3 ovarian
[45] = test system: SN12C renal
[46] = test system: SNB-19 CNS
[47] = test system: SNB-75 CNS
[48] = test system: SW-620 colon
[49] = test system: T-47D breast
[50] = test system: TK-10 renal
[51] = test system: U251 CNS
[52] = test system: UACC-257 melanoma
[53] = test system: UACC-62 melanoma
[54] = test system: UO-31 renal

Cc1cc(C(F)(F)F)ccc1C(=O)Nc1sc2c(c1C#N)CCC(=O)C2
GI50 [1]: 3510 nM | TGI [1]: > 100000 nM | GI50 [2]: 23200 nM | TGI [2]: 93500 nM | GI50 [3]: 3420 nM | TGI [3]: 23100 nM | GI50 [4]: 1090 nM | TGI [4]: 2570 nM | GI50 [5]: 591 nM | TGI [5]: 3040 nM | GI50 [6]: 1320 nM | TGI [6]: 2950 nM | GI50 [7]: 2030 nM | TGI [7]: 3680 nM | GI50 [8]: 3570 nM | TGI [8]: > 100000 nM | GI50 [9]: 2630 nM | TGI [9]: 12000 nM | GI50 [10]: 2730 nM | TGI [10]: 9210 nM | GI50 [11]: 411 nM | TGI [11]: 10300 nM | GI50 [12]: 552 nM | TGI [12]: 2360 nM | GI50 [13]: 448 nM | TGI [13]: 13700 nM | GI50 [14]: 3100 nM | TGI [14]: > 100000 nM | GI50 [15]: 957 nM | TGI [15]: 2620 nM | GI50 [16]: 2240 nM | TGI [16]: 22600 nM | GI50 [17]: 973 nM | TGI [17]: 3430 nM | GI50 [18]: 3420 nM | TGI [18]: 13500 nM | GI50 [19]: 240 nM | TGI [19]: > 100000 nM | GI50 [20]: 1080 nM | TGI [20]: 5000 nM | GI50 [21]: 1060 nM | TGI [21]: 3730 nM | GI50 [22]: 1390 nM | TGI [22]: 3610 nM | GI50 [23]: 1450 nM | TGI [23]: 3010 nM | GI50 [24]: 1780 nM | TGI [24]: 11300 nM | GI50 [25]: 1560 nM | TGI [25]: 3390 nM | GI50 [26]: 1880 nM | TGI [26]: 4340 nM | GI50 [27]: 1540 nM | TGI [27]: 5040 nM | GI50 [28]: 619 nM | TGI [28]: 12300 nM | GI50 [29]: 2830 nM | TGI [29]: 18500 nM | GI50 [30]: 1710 nM | TGI [30]: 6500 nM | GI50 [31]: 3160 nM | TGI [31]: 69600 nM | GI50 [32]: 288 nM | TGI [32]: 1010 nM | GI50 [33]: 1400 nM | TGI [33]: 3240 nM | GI50 [34]: 1250 nM | TGI [34]: 2940 nM | GI50 [35]: 2020 nM | TGI [35]: 5940 nM | GI50 [36]: 1800 nM | TGI [36]: 27300 nM | GI50 [37]: 333 nM | TGI [37]: 3280 nM | GI50 [38]: 659 nM | TGI [38]: 3090 nM | GI50 [39]: 2830 nM | TGI [39]: 20500 nM | GI50 [40]: 2010 nM | TGI [40]: 5910 nM | GI50 [41]: 496 nM | TGI [41]: 1900 nM | GI50 [42]: 1240 nM | TGI [42]: 2620 nM | GI50 [43]: 1540 nM | TGI [43]: 2960 nM | GI50 [44]: 9210 nM | TGI [44]: 28500 nM | GI50 [45]: 1640 nM | TGI [45]: 10900 nM | GI50 [46]: 3910 nM | TGI [46]: > 100000 nM | GI50 [47]: 1030 nM | TGI [47]: 6740 nM | GI50 [48]: 504 nM | TGI [48]: 2570 nM | GI50 [49]: 453 nM | TGI [49]: 2520 nM | GI50 [50]: 1590 nM | TGI [50]: 24900 nM | GI50 [51]: 2250 nM | TGI [51]: 13200 nM | GI50 [52]: 1900 nM | TGI [52]: 5280 nM | GI50 [53]: 1220 nM | TGI [53]: 2670 nM | GI50 [54]: 1120 nM | TGI [54]: 2380 nM
